Assay: cn = amount concentration of the nth substance listed, in mol/dm3
Details: 298.15 K, 101.3 kPa, Liquid; for viscosity: Capillary tube (Ostwald / Ubbelohde) method; for mass density: Pycnometric method

C[N+](C)(C)C.[I-] [tetramethylammonium iodide] + O
Details	mass density [kg/m3]	viscosity [mPa·s]
c1 = 0.05	1001	0.805
c1 = 0.1	1003	0.812
c1 = 0.15	1009	0.819
